Experimental data from patent publication US20190247322A1, “Active Mixture of 1,2-hexanediol and 1,2-octanediol” (Symrise AG, priority 2015, published 2019).

How the values were obtained:
[1] = water (20° dH) at 20° C., solid active agent; cited from earlier work
[2] = tested on: Aspergillus niger; experiment: Antimicrobial activity, minimum inhibitory concentration; type: cell-based
Text: (§1) Antimicrobial activity of a mixture of 1,2-hexanediol and 1,2-octanediol (1:1) was investigated compared to the individual 1,2-diols with regard to 5 prominent microorganisms:
(§2) EC Echerichia coli PA Pseudomonas aeruginosa SA Staphylococcus aureus CA Candida albicans AN Aspergillus niger
(§3) Shown are the minimum inhibitory concentrations (MICs) in percent.

[3] = tested on: Candida albicans; experiment: as above; type: cell-based
Text: as §1, §2, §3

[4] = tested on: Pseudomonas aeruginosa; experiment: as above; type: cell-based
Text: as §1, §2, §3

[5] = tested on: Staphylococcus aureus; experiment: as above; type: cell-based
Text: as §1, §2, §3

[6] = tested on: Echerichia coli; experiment: as above; type: cell-based
Text: as §1, §2, §3

Row | minimum inhibitory concentration (MIC), AN [2] [%] | minimum inhibitory concentration (MIC), CA [3] [%] | minimum inhibitory concentration (MIC), PA [4] [%] | minimum inhibitory concentration (MIC), SA [5] [%] | minimum inhibitory concentration (MIC), EC [6] [%] | SMILES | solubility in water [1]
1 | – | – | – | – | – | Nc1nc2c(ncn2COCCO)c(=O)[nH]1 [Acyclovir, 2-Amino-1,9-dihydro-9-((2-hydroxyethoxy)methyl)-6H-Purin-6-one] | less than 5 g/L
2 | 0.63 | 1.25 | 0.63 | 2.50 | 1.25 | CCCCC(O)CO (centres unmarked) [Comparative Example C1, 1,2-hexanediol] | –
3 | 0.16 | 0.31 | 0.63 | 1.25 | 0.63 | CCCCCCC(O)CO (centres unmarked) [Comparative Example C2, 1,2-octanediol] | –
